# Assay results reported in patent US20230021483A1, “[…] […] METHOD AND CLASSIFICATION OF PHARMACEUTICAL COMPONENTS BY USING TRANSCRIPTOMES” (National Institutes of Biomedical Innovation, Health and …, priority 2016, published 2023).
# How the values were obtained:
# liver (LV) = test: Whole organ transcriptome (GeneChip microarray) of liver 6 h after adjuvant administration: sDEGs, hierarchical clustering; assay type: in vivo, C57BL/6 mice; as to cluster of strongly responding individual samples in LV (clustering exceptions): key: G1 (interferon signaling); G2 (metabolism of lipids and lipoproteins); G3 (response to stress); G4 (response to wounding); G5 (phosphate-containing compound metabolic process); G6 (phagosome)
# [1] = system: adjuvant-associated biological themes in LV, SP, LN
# Outline: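 Per-mouse whole-organ transcriptomes; genes with eij/ei(c)>2.0 tested for theme enrichment via TargetMine (GO, KEGG, Reactome, others), Fisher's exact test, Holm-Bonferroni correction. Themes shared by all three mice kept at p<0.05, using the smallest p. Score per adjuvant-associated term = Σ−log(p) of matching themes.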
substance,measurement,setting,value
"D35: A class CpG ODN (5′-GGTGCATCGATGCAGGGGGG-3′), TLR9 ligand (DNA GGTGCATCGATGCAGGGGGG; chemistry not given here)","Number of gene probes with statistically significant changes (sDEGs), LV, Down","liver (LV); i.d. administration, liver, fold change <0.667, p<0.01, customized PA call=1, 6 h after adjuvant",36
same,"Number of gene probes with statistically significant changes (sDEGs), LV, Up","liver (LV); i.d. administration, liver, fold change >1.5, p<0.01, customized PA call=1, 6 h after adjuvant",15
same,cluster of strongly responding individual samples in LV (clustering exceptions),liver (LV); samples D35_ID_x2 and K3_ID_x3 only,G2
same,"tissue damage-associated annotations (cell death, wounding) in LNs","[1]; LN, i.d., fold change >2",did not induce cell death and wounding in LNs
same,GO annotation: Cytokine-cytokine receptor interaction (Term: cytokine),"[1]; LV, ID",0
same,GO annotation: Cytokine-cytokine receptor interaction|Endocytosis (Term: cytokine),"[1]; LV, ID",5.2
same,GO annotation: I-kappaB kinase/NF-kappaB signaling (Term: NF-kappa B signaling pathway),"[1]; LV, ID",0
same,GO annotation: NF-kappa B signaling pathway (Term: NF-kappa B signaling pathway),"[1]; LV, ID",5.27
same,GO annotation: TNF signaling pathway (Term: TNF signaling pathway),"[1]; LV, ID",12.1
same,GO annotation: activation of immune response (Term: immune response),"[1]; LV, ID",0
same,GO annotation: activation of innate immune response (Term: innate immune response),"[1]; LV, ID",0
same,GO annotation: acute inflammatory response (Term: inflammatory response),"[1]; LV, ID",0
same,GO annotation: adaptive immune response (Term: adaptive immune response),"[1]; LV, ID",0
same,GO annotation: apoptotic process (Term: apoptosis),"[1]; LV, ID",0
same,GO annotation: apoptotic signaling pathway (Term: apoptosis),"[1]; LV, ID",0
same,GO annotation: cell chemotaxis (Term: chemotaxis),"[1]; LV, ID",4.51
same,GO annotation: cell death (Term: cell death),"[1]; LV, ID",5.7
same,GO annotation: cell migration (Term: migration),"[1]; LV, ID",0
same,GO annotation: cellular response to cytokine stimulus (Term: cytokine),"[1]; LV, ID",3.28
same,GO annotation: cellular response to interferon-alpha (Term: IFN alpha),"[1]; LV, ID",0
same,GO annotation: cellular response to stress (Term: stress),"[1]; LV, ID",0
same,GO annotation: chemokine production (Term: chemokine),"[1]; LV, ID",0
same,GO annotation: chemokine-mediated signaling pathway (Term: chemokine),"[1]; LV, ID",0
same,GO annotation: chemotaxis (Term: chemotaxis),"[1]; LV, ID",0
same,GO annotation: cytokine biosynthetic process (Term: cytokine),"[1]; LV, ID",0
same,GO annotation: cytokine metabolic process (Term: cytokine),"[1]; LV, ID",0
same,GO annotation: cytokine production (Term: cytokine),"[1]; LV, ID",0
same,GO annotation: cytokine secretion (Term: cytokine),"[1]; LV, ID",0
same,GO annotation: cytokine-mediated signaling pathway (Term: cytokine),"[1]; LV, ID",0
same,GO annotation: death (Term: cell death),"[1]; LV, ID",0
same,GO annotation: defense response (Term: defense response),"[1]; LV, ID",5.76
same,GO annotation: defense response to Gram-positive bacterium (Term: defense response),"[1]; LV, ID",0
same,GO annotation: defense response to bacterium (Term: defense response),"[1]; LV, ID",0
same,GO annotation: defense response to other organism (Term: defense response),"[1]; LV, ID",0
same,GO annotation: defense response to protozoan (Term: defense response),"[1]; LV, ID",0
same,GO annotation: defense response to virus (Term: defense response),"[1]; LV, ID",0
same,GO annotation: granulocyte chemotaxis (Term: chemotaxis),"[1]; LV, ID",0
same,GO annotation: granulocyte migration (Term: migration),"[1]; LV, ID",0
same,GO annotation: immune response (Term: immune response),"[1]; LV, ID",0
same,GO annotation: immune response-activating signal transduction (Term: immune response),"[1]; LV, ID",0
same,GO annotation: immune response-regulating signaling pathway (Term: immune response),"[1]; LV, ID",0
same,GO annotation: inflammatory response (Term: inflammatory response),"[1]; LV, ID",0
same,GO annotation: innate immune response (Term: innate immune response),"[1]; LV, ID",0
same,GO annotation: innate immune response-activating signal transduction (Term: innate immune response),"[1]; LV, ID",0
same,GO annotation: interferon-alpha production (Term: IFN alpha),"[1]; LV, ID",0
same,GO annotation: intrinsic apoptotic signaling pathway (Term: apoptosis),"[1]; LV, ID",0
same,GO annotation: leukocyte chemotaxis (Term: chemotaxis),"[1]; LV, ID",0
same,GO annotation: leukocyte migration (Term: migration),"[1]; LV, ID",0
same,GO annotation: leukocyte migration involved in inflammatory response (Term: inflammatory response),"[1]; LV, ID",0
same,GO annotation: lymphocyte chemotaxis (Term: chemotaxis),"[1]; LV, ID",0
same,GO annotation: lymphocyte migration (Term: migration),"[1]; LV, ID",0
same,GO annotation: myeloid leukocyte migration (Term: migration),"[1]; LV, ID",0
same,GO annotation: negative regulation of apoptotic process (Term: apoptosis),"[1]; LV, ID",0
same,GO annotation: negative regulation of cell death (Term: cell death),"[1]; LV, ID",0
same,GO annotation: negative regulation of cytokine production (Term: cytokine),"[1]; LV, ID",0
same,GO annotation: negative regulation of defense response (Term: defense response),"[1]; LV, ID",0
same,GO annotation: negative regulation of immune response (Term: immune response),"[1]; LV, ID",0
same,GO annotation: negative regulation of innate immune response (Term: innate immune response),"[1]; LV, ID",0
same,GO annotation: negative regulation of programmed cell death (Term: cell death),"[1]; LV, ID",0
same,GO annotation: neutrophil chemotaxis (Term: chemotaxis),"[1]; LV, ID",0
same,GO annotation: neutrophil migration (Term: migration),"[1]; LV, ID",0
same,GO annotation: positive regulation of I-kappaB kinase/NF-kappaB signaling (Term: NF-kappa B signaling pathway),"[1]; LV, ID",0
same,GO annotation: positive regulation of adaptive immune response (Term: adaptive immune response),"[1]; LV, ID",0
same,GO annotation: positive regulation of apoptotic process (Term: apoptosis),"[1]; LV, ID",3.18
same,GO annotation: positive regulation of cell death (Term: cell death),"[1]; LV, ID",0
same,GO annotation: positive regulation of cell migration (Term: migration),"[1]; LV, ID",0
same,GO annotation: positive regulation of chemokine production (Term: chemokine),"[1]; LV, ID",0
same,GO annotation: positive regulation of chemotaxis (Term: chemotaxis),"[1]; LV, ID",0
same,GO annotation: positive regulation of cytokine biosynthetic process (Term: cytokine),"[1]; LV, ID",0
same,GO annotation: positive regulation of cytokine production (Term: cytokine),"[1]; LV, ID",0
same,GO annotation: positive regulation of defense response (Term: defense response),"[1]; LV, ID",0
same,GO annotation: positive regulation of immune response (Term: immune response),"[1]; LV, ID",0
same,GO annotation: positive regulation of inflammatory response (Term: inflammatory response),"[1]; LV, ID",0
same,GO annotation: positive regulation of innate immune response (Term: innate immune response),"[1]; LV, ID",0
same,GO annotation: positive regulation of interferon-alpha production (Term: IFN alpha),"[1]; LV, ID",0
same,GO annotation: positive regulation of leukocyte chemotaxis (Term: chemotaxis),"[1]; LV, ID",0
same,GO annotation: positive regulation of leukocyte migration (Term: migration),"[1]; LV, ID",0
same,GO annotation: positive regulation of programmed cell death (Term: cell death),"[1]; LV, ID",3.05
same,GO annotation: positive regulation of response to wounding (Term: wounding),"[1]; LV, ID",0
same,GO annotation: positive regulation of tumor necrosis factor superfamily cytokine (Term: cytokine),"[1]; LV, ID",0
same,GO annotation: production of molecular mediator of immune response (Term: immune response),"[1]; LV, ID",0
same,GO annotation: programmed cell death (Term: cell death),"[1]; LV, ID",0
same,GO annotation: regulation of I-kappaB kinase/NF-kappaB signaling (Term: NF-kappa B signaling pathway),"[1]; LV, ID",0
same,GO annotation: regulation of adaptive immune response (Term: adaptive immune response),"[1]; LV, ID",0
same,GO annotation: regulation of apoptotic process (Term: apoptosis),"[1]; LV, ID",0
same,GO annotation: regulation of apoptotic signaling pathway (Term: apoptosis),"[1]; LV, ID",0
same,GO annotation: regulation of cell death (Term: cell death),"[1]; LV, ID",0
same,GO annotation: regulation of cell migration (Term: migration),"[1]; LV, ID",0
same,GO annotation: regulation of chemokine production (Term: chemokine),"[1]; LV, ID",0
same,GO annotation: regulation of chemotaxis (Term: chemotaxis),"[1]; LV, ID",0
same,GO annotation: regulation of cytokine biosynthetic process (Term: cytokine),"[1]; LV, ID",0
same,GO annotation: regulation of cytokine production (Term: cytokine),"[1]; LV, ID",0
same,GO annotation: regulation of defense response (Term: defense response),"[1]; LV, ID",0
same,GO annotation: regulation of defense response to virus (Term: defense response),"[1]; LV, ID",0
same,GO annotation: regulation of defense response to virus by host (Term: defense response),"[1]; LV, ID",0
same,GO annotation: regulation of immune response (Term: immune response),"[1]; LV, ID",0
same,GO annotation: regulation of inflammatory response (Term: inflammatory response),"[1]; LV, ID",0
same,GO annotation: regulation of innate immune response (Term: innate immune response),"[1]; LV, ID",0
same,GO annotation: regulation of interferon-alpha production (Term: IFN alpha),"[1]; LV, ID",0
same,GO annotation: regulation of intrinsic apoptotic signaling pathway (Term: apoptosis),"[1]; LV, ID",0
same,GO annotation: regulation of leukocyte chemotaxis (Term: chemotaxis),"[1]; LV, ID",0
same,GO annotation: regulation of leukocyte migration (Term: migration),"[1]; LV, ID",0
same,GO annotation: regulation of programmed cell death (Term: cell death),"[1]; LV, ID",0
same,GO annotation: regulation of response to stress (Term: stress),"[1]; LV, ID",0
same,GO annotation: regulation of response to wounding (Term: wounding),"[1]; LV, ID",0
same,GO annotation: regulation of tumor necrosis factor superfamily cytokine production (Term: cytokine),"[1]; LV, ID",0
same,GO annotation: response to cytokine (Term: cytokine),"[1]; LV, ID",8.12
same,GO annotation: response to interferon-alpha (Term: IFN alpha),"[1]; LV, ID",0
same,GO annotation: response to stress (Term: stress),"[1]; LV, ID",9.13
same,GO annotation: response to wounding (Term: wounding),"[1]; LV, ID",0
same,GO annotation: taxis (Term: chemotaxis),"[1]; LV, ID",0
same,GO annotation: tumor necrosis factor superfamily cytokine production (Term: cytokine),"[1]; LV, ID",0
same,IFN beta: cellular response to interferon-beta,"[1]; LV, ID",0
same,IFN beta: interferon-beta production,"[1]; LV, ID",0
same,IFN beta: positive regulation of interferon-beta production,"[1]; LV, ID",0
same,IFN beta: regulation of interferon-beta production,"[1]; LV, ID",0
same,IFN beta: response to interferon-beta,"[1]; LV, ID",0
same,IFN gamma: cellular response to interferon-gamma,"[1]; LV, ID",0
same,IFN gamma: interferon-gamma production,"[1]; LV, ID",0
same,IFN gamma: regulation of interferon-gamma production,"[1]; LV, ID",0
same,IFN gamma: response to interferon-gamma,"[1]; LV, ID",0
same,interleukin-6: interleukin-6 production,"[1]; LV, ID",0
same,interleukin-6: positive regulation of interleukin-6 production,"[1]; LV, ID",0
same,interleukin-6: regulation of interleukin-6 production,"[1]; LV, ID",0
same,interleukin-12: interleukin-12 production,"[1]; LV, ID",0
same,interleukin-12: positive regulation of interleukin-12 production,"[1]; LV, ID",0
same,interleukin-12: regulation of interleukin-12 production,"[1]; LV, ID",0
same,GO annotation: adaptive immune response based on somatic recombination of immune receptors built from immunoglobulin superfamily domains (Term: adaptive immune response),"[1]; mouse, in vivo",0
same,GO annotation: regulation of adaptive immune response based on somatic recombination of immune receptors built from immunoglobulin superfamily domains (Term: adaptive immune response),"[1]; mouse, in vivo",0
